Key:
[1] = target: T1, 5-HT receptors (the putative 5-HT2B) in rat stomach fundus longitudinal muscle (Rattus norvegicus, UniProt P30994); experiment: 5-HT2B receptor tissue based functional assay in rat stomach fundus longitudinal muscle; assay type: biochemical; conditions: dextral shift of 5-HT agonist concentration-response curve, rat stomach fundus strips; result in words only
T1 construct: Strips of longitudinal muscle were obtained from the stomach fundus of male Sprague Dawley rats; from tissue; host or cells: rat stomach fundus longitudinal muscle strips
T1 sequence (P30994 whole entry): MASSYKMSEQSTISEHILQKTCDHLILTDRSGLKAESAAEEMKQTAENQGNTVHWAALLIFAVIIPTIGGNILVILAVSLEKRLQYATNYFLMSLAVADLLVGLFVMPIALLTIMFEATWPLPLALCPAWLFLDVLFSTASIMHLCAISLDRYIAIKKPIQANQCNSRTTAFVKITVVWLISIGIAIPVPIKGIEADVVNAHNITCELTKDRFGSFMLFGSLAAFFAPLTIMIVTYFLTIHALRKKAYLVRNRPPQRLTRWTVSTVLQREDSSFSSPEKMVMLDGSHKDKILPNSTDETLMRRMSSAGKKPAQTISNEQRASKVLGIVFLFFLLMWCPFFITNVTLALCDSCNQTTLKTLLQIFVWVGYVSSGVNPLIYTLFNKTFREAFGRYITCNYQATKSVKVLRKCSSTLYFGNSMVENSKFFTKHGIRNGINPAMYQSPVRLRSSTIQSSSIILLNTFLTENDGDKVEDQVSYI
Procedure: 5-HT2B Receptor Tissue Based Functional Assay
The following describes an in vitro functional assay characterizing 5-HT receptors (the putative 5-HT2B) in rat stomach fundus longitudinal muscle (Baxter et al., Brit. J. Pharmacol. 1994, 112, 323-331).
Strips of longitudinal muscle were obtained from the stomach fundus of male Sprague Dawley rats. The mucosa was removed and the strips were suspended with a resting tension of 1 g in oxygenated (95% O2/5% CO2) Tyrode solution at 37° C. The composition of the Tyrode solution was as follows (mM): NaCl 136.9; KCl 2.7; NaH2PO4 0.4; MgCl2 1.0; glucose 5.6; NaHCO3 11.9; CaCl2 1.8. […]
Effects of drugs were monitored by tension transducers and recorded on polygraph recorders. Tissue response was measured as changes in isometric tension (g). The mean potency (EC50) and maximum response were evaluated by standard iterative curve fitting procedures.
Effects of antagonists were determined by measuring dextral shifts to the agonist concentration-response curve after equilibration of the antagonists for at least 1 h. Concentration ratios were measured at half maximal response levels and single concentration antagonist affinities were determined by the equation: [formula]

[2] = target: T2, human Histamine H1 receptor (Homo sapiens, UniProt P35367); experiment: Cloned human H1, H2 and H3 receptor binding assay ([3H]-mepyramine, transfected COS-7 cell homogenates); conditions: displacement of 1 nM [3H]-mepyramine, COS-7 homogenates; result in words only
T2 construct: expressed in transfected cells; host or cells: COS-7 (transient transfection; cell homogenates)
T2 sequence (P35367 whole entry): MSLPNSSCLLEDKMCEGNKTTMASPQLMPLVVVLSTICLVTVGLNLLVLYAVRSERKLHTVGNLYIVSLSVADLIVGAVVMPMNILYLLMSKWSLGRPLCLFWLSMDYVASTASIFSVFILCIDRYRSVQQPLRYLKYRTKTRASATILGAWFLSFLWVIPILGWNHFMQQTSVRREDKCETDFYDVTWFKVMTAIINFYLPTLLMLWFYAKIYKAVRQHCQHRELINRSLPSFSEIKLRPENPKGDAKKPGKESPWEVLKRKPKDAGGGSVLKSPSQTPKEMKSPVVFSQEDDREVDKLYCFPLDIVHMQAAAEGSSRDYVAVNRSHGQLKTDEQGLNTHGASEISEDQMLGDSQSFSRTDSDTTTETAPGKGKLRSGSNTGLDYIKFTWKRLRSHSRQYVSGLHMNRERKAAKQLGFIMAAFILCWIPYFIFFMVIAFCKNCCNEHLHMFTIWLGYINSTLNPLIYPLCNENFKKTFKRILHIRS
Procedure: Cloned Human H1, H2, and H3 Receptor Binding Assay
COS-7 cells were transiently transfected with an expression plasmid pCineohH1, pCineohH2, pCineohH3 and pCineohH4 encoding the human Histamine H1, H2, H3 or H4 receptor, respectively. Transfected cells were harvested after 48 h, homogenized in ice-cold 50 mM Na2/potassium phosphate buffer (pH 7.4) and used for radioligand binding studies. Cell homogenates (40-50 μg of protein) were incubated for 30 min at 25° C. in 50 mM Na2/potassium phosphate buffer (pH 7.4) in 400 μl with the various concentrations of either [^3H]-mepyramine, [^3H]-thiotidine, [^3H]-R-α-Methylhistamine, and [^3H]-pyramilamine for cells expressing recombinant human H1, H2, H3 and H4 receptors, respectively. The nonspecific binding was defined in the presence of 1 μM mianserin. In displacement studies, cell homogenated were incubated either with 1 nM [^3H]-mepyramine, 15 nM [^3H]-thiotidine, 0.5 nM [^3H]-R-α-Methylhistamine, or 15 nM [^3H]-pyramilamine and increasing concentrations of competing ligands. […] The bound radioactivity was seperated by filatration through Whatman GF/C filters that had been treated with 0.3% polyethyleneimine. Filters were washed twice in 3 ml of buffer and radioactivity retained on the filters was measured by liquid scinitllation counting. […]

[3] = target: T3, human H1 receptor (Homo sapiens, UniProt P35367); experiment: Human histamine H1 receptor functional assay ([3H]-inositol phosphate formation in transfected HEK-293 cells); assay type: cell-based; conditions: histamine-stimulated [3H]-inositol phosphate formation, result in words only
T3 construct: expressed in transfected cells; host or cells: HEK-293 (transient transfection; whole cells)
T3 sequence (P35367 whole entry): as above
Procedure: Human Histamine H1 Receptor Functional Assay
For the measurement of the [^3H]-inositol phosphate formation transiently transfected HEK-293 cells were seeded in 24 well plates and labeled to equilibrium with myo-[2-^3H]-inositol (3 iCi/ml) for an additional 24 hours in growth medium. The medium was aspirated and cells were washed once with 500 μl HBS-buffer (130 mM NaCl, 900 μM NaH2PO4, 800 μM MgSO4, 5.4 mM KCl, 1.8 mM CaCl2, 25 mM Glucose in 20 mM HEPES pH 7.4). Two min after applying 20 mM Li^+ the cells were stimulated by addition of histamine in HBS-buffer. The incubation was stopped by aspiration off the culture medium and the addition of cold 10 mM formic acid. [^3H]inositol phosphates were isolated by anion exchange chromatography (see Seuwen et al., 1988, EMBO J., 7, 161-168). The pKB value was calculated according to the formula: pKB=log (A′/A−1)−log [B], where A′/A is the ratio of the agonist concentrations (EC50 in the presence/EC50 in the absence of antagonist) and [B] the concentration of antagonist.

[4] = target: T4, human 5-HT2B receptor (Homo sapiens, UniProt P41595); experiment: 5-HT2A/5-HT2B/5-HT2C receptor binding methods (counter screen for selectivity); set-up: expressed in transfected cells; host or cells: HEK293; conditions: human 5-HT2B in HEK293, [3H]-5HT approx. 0.4 nM, 120 min at 4° C.; result in words only
T4 sequence (P41595 whole entry): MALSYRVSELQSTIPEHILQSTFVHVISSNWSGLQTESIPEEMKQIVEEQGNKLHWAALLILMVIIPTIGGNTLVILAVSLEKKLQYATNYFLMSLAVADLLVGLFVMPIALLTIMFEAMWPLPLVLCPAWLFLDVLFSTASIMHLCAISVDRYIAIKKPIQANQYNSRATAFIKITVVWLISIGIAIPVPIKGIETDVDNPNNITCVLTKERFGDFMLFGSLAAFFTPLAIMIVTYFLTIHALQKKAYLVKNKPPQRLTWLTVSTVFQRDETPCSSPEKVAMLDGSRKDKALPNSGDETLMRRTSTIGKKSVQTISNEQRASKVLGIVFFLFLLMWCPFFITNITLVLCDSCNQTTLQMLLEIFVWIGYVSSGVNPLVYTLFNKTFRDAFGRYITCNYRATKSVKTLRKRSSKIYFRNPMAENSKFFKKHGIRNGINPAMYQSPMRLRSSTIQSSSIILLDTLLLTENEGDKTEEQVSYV
Procedure: 5-HT2A 5-HT2B 5-HT2C Receptor Binding Methods
5-HT2A receptors were labelled with [^3H]ketanserin in human cortex, in HEK293 cells expressing a cloned human 5-HT2A receptor and in HEK293 cells expressing the rat 5-HT2A receptor. For competition binding studies the ligand concentration was approximately 0.1 nM. For saturation binding studies concentrations of radioligand ranged from 0.01 nM to 2.0 nM. Assays were conducted in 0.5 ml of assay buffer (50 mM Tris-HCl, 4 mM calcium chloride, 0.1% by weight ascorbic acid) (pH 7.4 at 4° C.). Non-specifc binding was defined with […] unlabelled ketanserin. After a 60 min incubation at 32° C., membranes were harvested onto filters treated with 0.1% by weight of polyethylenimine and the bound radioactivity was determined.
Human 5-HT2B receptors were labelled in HEK293 cells as described above. except that the radioligand was [^3H]-5HT and that the assay buffer contained pargyline in a concentration of 10 mM and 0.1% by weight of ascorbic acid. […]
Competition radioligand binding data was analyzed using a four parameter logistic equation and iterative curve-fitting techniques to obtain estimates of the IC50 and Hill slope. Kd values, determined from saturation binding studies were then used to calculate inhibition dissociation constants (Ki).

[5] = target: T4, human 5-HT2B receptor; experiment: Cloned human 5-HT2B receptor binding assay ([3H]-5HT, transfected HEK 293 cell membranes); set-up: expressed in transfected cells; host or cells: HEK 293 (transient transfection; membranes); conditions: [3H]5-HT 4 to 5 nM, 37° C. 30 min, result in words only
Procedure: Cloned Human 5-HT2B Receptor Binding Assay
The following describes an in vitro binding assay utilizing cloned 5-HT2B receptors radiolabelled with [^3H]-5HT.
HEK 293 cells transiently transfected with an expression plasmid pXMD1-hu2B encoding the human 5-HT2B receptor (see Schmuck et al., FEBS Lett., 1994, 342, 85-90) were used as described previously (Schmuck et al., Eur. J. Pharmacol., 1996, 8, 959-967). Two days after transfection cells were harvested, pelleted at 500 g for 5 min at 4° C., gently resuspended in ice-cold buffer1 (50 mM TRIS pH 7.7, 4 mM CaCl2) and homogenized using a Polytron PT 1200 tissue homogenizer (position 6 for 30 s). Cells were pelleted at 50,000 g, 4° C. for 10 min, washed with buffer1 and pelleted again. The final pellet was resuspended in incubation buffer (50 mM TRIS pH 7.7, 4 mM CaCl2, 10 μM pargyline and 0.1% by weight ascorbic acid). The binding assay consisted of 300 μl of membrane suspension (protein concentration =0.3 to 0.5 mg/ml), 150 μl of competing drug and 50 μl of [^3H]5-HT at a final concentration of 4 to 5 nM. […] Filters were counted by liquid scintillation. Non-specific binding was determined in the presence of an excess of 5-HT ([…]). […] Results are expressed as pK1 values. […]

SMILES: CCOc1ccc2c(c1)Sc1ccccc1C2=C1CCN(C)CC1 [1-methyl-4-(3-ethoxy-9H-thioxanthene-9-ylidene)-piperidine]
- antagonism at the 5-HT2B receptor [1]: found to be an antagonist at the 5-HT2B receptor
- affinity for the human H1 receptor [2]: found to have affinity for the human H1 receptor
- antagonism at the human H1 receptor [3]: found to be an antagonist at the human H1 receptor
- affinity for the 5-HT2B receptor [4]: found to have affinity for the 5-HT2B receptor
- affinity for the 5-HT2B receptor [5]: found to have affinity for the 5-HT2B receptor
